The target in one series is T1, Galanin GAL1 (Homo sapiens, UniProt P47211).
T1 construct: expressed in transfected cells; host or cells: HEK-293
T1 sequence (P47211 1-349): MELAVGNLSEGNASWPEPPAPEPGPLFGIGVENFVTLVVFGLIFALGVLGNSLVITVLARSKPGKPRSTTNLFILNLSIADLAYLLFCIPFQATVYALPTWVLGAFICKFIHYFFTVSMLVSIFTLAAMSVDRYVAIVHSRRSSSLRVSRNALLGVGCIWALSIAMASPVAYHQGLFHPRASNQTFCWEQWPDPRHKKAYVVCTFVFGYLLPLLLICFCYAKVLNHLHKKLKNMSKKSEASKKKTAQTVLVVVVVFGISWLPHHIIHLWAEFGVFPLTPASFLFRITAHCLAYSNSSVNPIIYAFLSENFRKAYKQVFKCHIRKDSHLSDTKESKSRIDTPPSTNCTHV
Description: Galanin radioligand binding competitive assay, GAL1 (125I galanin porcine, recombinant HEK-293 cells). The note with it: 0.012 nM 125I Galanin (porcine), human recombinant HEK-293; for inhibition at 0.01 µM: 10 nM peptide, read-out: GAL1 % inhib at 10 nM; for inhibition at 0.1 µM: 100 nM peptide, read-out: GAL1 % inhib at 100 nM. The method, then: (§1) Galanin(1-16) Linear Reference Peptide 231, Galanin(1-16) Analog Incorporating (R)-Helix Pentapeptide Mimetic A 232a and Galanin(1-16) Analog Incorporating (S)-Helix Pentapeptide Mimetic A 232b were tested for binding affinity to the Galanin-1 and Galanin-2 receptors using a radioligand binding competitive assay (Heuillet E, Bouaiche Z, Menager J, Dugay P, Munoz N, Dubois H, Amiranoff B, Crespo A, Lavayre J, Blanchard J C, Doble A; Eur J. Pharmacol., 1994, 269, 139-147. Bloomquist B T, Beauchamp M R, Zhelnin L, Brown S E, Biochem Biophys Res Comm., 1998, 243, 474-479.) Human recombinant HEK-293 cells were used as the source of Galanin GAL1, and samples tested against competitive binding with 0.012 nM ^125I Galanin (porcine). DMSO was used as the vehicle, and the incubation buffer consisted of 10 mM HEPES-NaOH, pH 7.4, 1 mM EDTA, 0.5% BSA, 0.01% Bacitracin. Human recombinant CHO-K1 cells were used as the source of Galanin GAL2, and samples tested against competitive binding with 0.02 nM ^125I Galanin (human).

For another series, the target named is T2, Galanin GAL2 (Homo sapiens, UniProt O43603).
T2 construct: expressed in transfected cells; host or cells: CHO-K1
T2 sequence (O43603 1-387): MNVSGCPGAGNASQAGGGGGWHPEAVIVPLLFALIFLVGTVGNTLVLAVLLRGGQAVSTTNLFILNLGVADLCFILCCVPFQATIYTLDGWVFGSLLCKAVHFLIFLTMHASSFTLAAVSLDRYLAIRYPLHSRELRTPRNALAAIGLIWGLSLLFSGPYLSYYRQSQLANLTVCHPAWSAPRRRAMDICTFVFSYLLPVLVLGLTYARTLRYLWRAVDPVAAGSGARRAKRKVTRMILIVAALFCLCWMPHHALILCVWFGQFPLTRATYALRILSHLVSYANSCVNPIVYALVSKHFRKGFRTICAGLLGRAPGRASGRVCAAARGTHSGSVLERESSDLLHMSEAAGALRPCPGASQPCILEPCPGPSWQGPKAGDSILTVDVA
Nature of the series: Galanin radioligand binding competitive assay, GAL2 (125I galanin human, recombinant CHO-K1 cells). Conditions: 0.02 nM 125I Galanin (human); for inhibition at 0.1 µM: 100 nM peptide, read-out: GAL2 % inhib at 100 nM; for inhibition at 1 µM: 1 1000 nM peptide (so in the source), read-out: GAL2 % inhib at 1 1000 nM. The method, then: as §1

Series [1] in a line: Rat plasma stability of galanin peptides (LC/MS). Type of series: in vitro ADME. Conditions: for remaining at 2 min, 500 ng/mL / remaining at 4 h, 500 ng/mL: male, Sprague Dawley. How it is done:
Rat plasma was obtained freshly from male Sprague Dawley rats. The stock solutions for the samples Galanin(1-16) Linear Reference Peptide 231, Galanin(1-16) Analog Incorporating (R)-Helix Pentapeptide Mimetic A 232a and Galanin(1-16) Analog Incorporating (S)-Helix Pentapeptide Mimetic A 232b were prepared in 1:1 v:v acetonitrile/water at a concentration of 1 mg/mL. This stock solution was further diluted using 1:1 v:v acetonitrile/water to give a spiking solution with a nominal concentration of 50 μg/mL. For each compound, an aliquot (1485 μL) of rat plasma (maintained at 37° C.) was spiked with 15 μL of the spiking stock to give a nominal plasma concentration of 500 ng/mL. […] Samples were quenched by snap freezing in dry-ice. The concentration of the parent compound (Gal 231, Gal R 232a, Gal S 232b) was determined by LC/MS on a Micromass Quattro Premier triple-quadrupole instrument. The percentage of the parent compound remaining at each time point was calculated relative to the concentrations observed in the spiking control samples.

Series [2] in a line: Variable temperature CD, thermal denaturation of secondary structure. Type of series: physicochemical. The method, then: CD experiments were performed on a Jasco Model J-810 spectropolarimeter, which was routinely calibrated with (1S)-(+)-10-camphorsulfonic acid at a concentration of 0.06% (w/v). Experiments were performed at 25° C. using a 0.1 cm cell, a scan speed of 10 nm/min from 260 to 180 nm, with a resolution of 1 nm and a response time of 0.25 s. The spectra were averaged over 5 scans, baseline subtracted from the corresponding blank conditions, and smoothed using the Savitsky-Golay smoothing algorithm (Savitsky, A. and Golay, M. J. E., 1964, Anal. Chem, 36, 1627-1639) to reduce noise. The samples were dissolved in 10 mM phosphate buffer, measured as pH 7.4, and when required the appropriate volume of TFE was added to adjust to 30% TFE. The concentration of the samples of peptides incorporating Helix Mimetic A (galanin 1-16 analogs) were determined using the Beer-Lambert Law by measuring the absorbance of the samples at 280 nm and using a molar extinction co-efficient of ε280=6620 M^−1cm^−1 (ε280 of Galanin 1-30, contains same number of Trp and Tyr as Galanin 1-16). The concentration of the samples of peptides incorporating Helix Mimetic B (Temporin A analogs) samples and the pentapeptide 13-membered ring Helix Mimetic A and B samples were determined by quantitative RP-HPLC against a standard of known concentration. All samples were between 40-200 μM, and CD spectra were recorded at a range of concentrations to check that sample aggregation was not occurring. Raw CD data was recorded in raw ellipticity units and converted to mean ellipticity per mole using the equation [θ]=θ/(10×c×l), where c is the sample concentration (M) and l is the cell path length (cm). Data was not converted to mean peptide molar ellipticity per residue as for compounds containing the covalent ethyl-bridge hydrogen bond replacement it is unclear how many “natural” peptide units to count in these calculations. Variable temperature CD experiments were carried using a CDF-426/L Peltier type CD/Fluorescence simultaneous measurement attachment, and samples were equilibrated for 10 min once the desired temperature was reached.
CD spectroscopy (as outlined in Example K) was conducted on the Galanin(1-16) reference linear peptide 231 and the Galanin(1-16) helix mimetics 232a and 232b in 10 mM phosphate buffer (pH 7.4) and in 10 mM phosphate buffer with 30% TFE added (see FIG. 8). […] The CD spectra of […] in both buffer and buffer with TFE. […] Further CD experiments examined the thermal denaturation secondary structure stability of Gal(1-16) 231 and (S)-Gal(1-16) helix mimetic 232b were investigated by thermal denaturation experiments (FIG. 9). […]

Setting [3] is: pH 7.4, 30% TFE in phosphate buffer, 5-75° C.

Read-outs that look alike come from different tables or passages of the source.

What is called amount remaining is the share of the starting amount still present when the sample was taken.

On to `CC(C)C[C@@H]1NC(=O)[C@H](Cc2ccc(O)cc2)N[C@@H](CNC(=O)[C@H](C)NC(=O)[C@H](CO)NC(=O)[C@H](CC(N)=O)NC(=O)[C@H](CC(C)C)NC(=O)[C@@H](NC(=O)[C@H](Cc2c[nH]c3ccccc23)NC(=O)CN)[C@@H](C)O)CCN(CC(=O)N2CCC[C@H]2C(=O)N[C@@H](CC2C=NC=N2)C(=O)N[C@@H](C)C(=O)N[C@H](C(N)=O)C(C)C)C(=O)[C@H](CC(C)C)NC1=O` (some centres unmarked) [Gal R 232a], for which, at Galanin GAL1, the inhibition at 0.01 µM turned out to be 8% and the inhibition at 0.1 µM was 37%. At Galanin GAL2, the inhibition at 0.1 µM worked out at 6% and the inhibition at 1 µM turned out to be 36%. Also, in series [1], the “Time after spiking until concentration is below the limit of quantitation” value is on record as no more than 30 min. This compound also registered an amount remaining at 2 min, 500 ng/mL in series [1] (rat, plasma) of 50%. In series [1] (rat, plasma, 4 h), the “% Compound remaining at 4° C.” value came out at 31.3% and the “Percent remaining at end of 240 min incubation compared with 10 (linear Gal(1-16))” value is reported as “significantly higher”.

With `CC[C@H](C)[C@H](NC(=O)[C@H](CC(C)C)NC(=O)C1CCCN1C(=O)[C@H](CC(C)C)NC(=O)[C@@H](N)Cc1ccccc1)C(=O)NCC(=O)N[C@@H](CCCNC(=N)N)C(=O)NC[C@@H]1CCN([C@@H](CC(C)C)C(=O)N[C@@H](CC(C)C)C(N)=O)C(=O)CNC(=O)[C@H](CO)NC(=O)[C@H](CC(C)C)N1` (some centres unmarked) [Compound 235b], the “Thermal stability of secondary structure (variable temperature CD)” value (“Thermal stability of secondary structure” below) in series [2] (pH 7.4) is “remarkable thermal stability”.

For the compound `CC[C@H](C)[C@H](NC(=O)[C@H](CC(C)C)NC(=O)C1CCCN1C(=O)[C@H](CC(C)C)NC(=O)[C@@H](N)Cc1ccccc1)C(=O)NCC(=O)N[C@@H](CCCNC(=N)N)C(=O)NCC(=O)N[C@@H](CC(C)C)C(=O)N[C@@H](CO)C(=O)NCC(=O)N[C@@H](CC(C)C)C(=O)N[C@@H](CC(C)C)C(N)=O` (some centres unmarked) [Compound 234, FLPLIGRGLSGLL-NH2, reference compound], the “Thermal stability of secondary structure” value in series [2] (setting [3]) is listed as “increase in 222 nm absorbance as temperature increases, indicative of the helix unwinding”.

On to `CC(C)C[C@H](NC(=O)[C@H](CC(C)C)NC(=O)[C@H](Cc1ccc(O)cc1)NC(=O)CNC(=O)[C@H](C)NC(=O)[C@H](CO)NC(=O)[C@H](CC(N)=O)NC(=O)[C@H](CC(C)C)NC(=O)[C@@H](NC(=O)[C@H](Cc1c[nH]c2ccccc12)NC(=O)CN)[C@@H](C)O)C(=O)NCC(=O)N1CCC[C@H]1C(=O)N[C@@H](CC1C=NC=N1)C(=O)N[C@@H](C)C(=O)N[C@H](C(N)=O)C(C)C` (some centres unmarked) [Gal (1-16) 231, GWTLNSAGYLLGPHAV-NH2, reference compound], for which, on Galanin GAL1, the inhibition at 0.01 µM was determined as 85% and the inhibition at 0.1 µM was determined as 96%. At Galanin GAL2, the inhibition at 0.1 µM came to 92% and the inhibition at 1 µM was 101%. Also, the share remaining at 4 h, 500 ng/mL in series [1] (rat plasma, 4° C., 240 min, read-out: % Compound remaining at 4° C.) amounted to 6.2%. Also, in series [1] (rat plasma, 37° C., 2 min, nominal 500 ng/mL, read-out: % Compound remaining at 37° C.), the amount remaining at 2 min, 500 ng/mL was found to be 30.2%. In series [2] (setting [3]), the “Thermal stability of secondary structure” value is recorded as “decreased peptide secondary structure with increased temperature”.

As to `CC(C)C[C@@H]1NC(=O)[C@H](Cc2ccc(O)cc2)N[C@H](CNC(=O)[C@H](C)NC(=O)[C@H](CO)NC(=O)[C@H](CC(N)=O)NC(=O)[C@H](CC(C)C)NC(=O)[C@@H](NC(=O)[C@H](Cc2c[nH]c3ccccc23)NC(=O)CN)[C@@H](C)O)CCN(CC(=O)N2CCC[C@H]2C(=O)N[C@@H](CC2C=NC=N2)C(=O)N[C@@H](C)C(=O)N[C@H](C(N)=O)C(C)C)C(=O)[C@H](CC(C)C)NC1=O` (some centres unmarked) [Gal S 232b], on Galanin GAL1, the inhibition at 0.01 µM was determined as 2% and the inhibition at 0.1 µM amounted to 18%. Besides, on Galanin GAL2, the inhibition at 0.1 µM is 2% and the inhibition at 1 µM turned out to be 6%. Moreover, the “Time after spiking until concentration is below the limit of quantitation” value in series [1] is no more than 30 min. In series [1] (rat, plasma), this compound displayed a fraction remaining at 2 min, 500 ng/mL of 44.8% and a fraction remaining at 4 h, 500 ng/mL of 31.3%. Further, in series [1] (rat, plasma, 4 h), the “Percent remaining at end of 240 min incubation compared with 10 (linear Gal(1-16))” value is “significantly higher”. Also, in series [2] (pH 7.4), the “Thermal stability of secondary structure” value is listed as “excellent structural stability at elevated temperatures”.

The values above are taken from patent US20090275727A1, “Peptide turn mimetics” (MIMETICA PTY LIMITED, priority 1998, published 2009).
